Measurements taken from ChEMBL document CHEMBL4665629, “An optimised series of substituted N-phenylpyrrolamides as DNA gyrase B inhibitors” (Eur J Med Chem, 2019).
≈ marks a conversion by molar mass, not a printed value.

Assays:
Enterococcus faecalis = experiment: Antibacterial activity against Enterococcus faecalis ATCC 29212 assessed as bacterial growth inhibition at 50 uM incubated for 24 hrs by CLSI protocol based broth microdilution assay relative to control; format: functional
Escherichia coli [1] = experiment: Antibacterial activity against efflux pump d effect ive Escherichia coli JW5503 harbouring tolC mutant assessed as bacterial growth inhibition at 50 uM incubated for 24 hrs by CLSI protocol based broth microdilution assay relative to control; format: functional
[2] = target: DNA gyrase (Escherichia coli) (UniProt P0AES6+P0AES4); experiment: Inhibition of Escherichia coli DNA gyrase assessed as residual activity at 1 uM using biotinylated oligonucleotide as substrate incubated for 30 mins in presence of ATP by fluorescence-based microplate reader assay relative to control; format: protein-complex assay
Klebsiella pneumoniae = experiment: Antibacterial activity against Klebsiella pneumoniae ATCC 700603 assessed as bacterial growth inhibition at 50 uM incubated for 24 hrs by CLSI protocol based broth microdilution assay relative to control; format: functional
Acinetobacter baumannii = experiment: Antibacterial activity against Acinetobacter baumannii ATCC 19606 assessed as bacterial growth inhibition at 50 uM incubated for 24 hrs by CLSI protocol based broth microdilution assay relative to control; format: functional; conditions: ATCC 19606 = CIP 70.34 = JCM 6841
Escherichia coli [3] = experiment: Antibacterial activity against Escherichia coli ATCC 25922 assessed as bacterial growth inhibition at 50 uM incubated for 24 hrs by CLSI protocol based broth microdilution assay relative to control; format: functional
Enterococcus faecium = experiment: Antibacterial activity against Enterococcus faecium ATCC 35667 assessed as bacterial growth inhibition at 50 uM incubated for 24 hrs by CLSI protocol based broth microdilution assay relative to control; format: functional
Klebsiella aerogenes = experiment: Antibacterial activity against Enterobacter aerogenes ATCC 13408 assessed as bacterial growth inhibition at 50 uM incubated for 24 hrs by CLSI protocol based broth microdilution assay relative to control; format: functional
Escherichia coli [4] = experiment: Antibacterial activity against outer membrane impaired Escherichia coli JD17464 harboring lpxC mutant assessed as bacterial growth inhibition at 50 uM incubated for 24 hrs by CLSI protocol based broth microdilution assay relative to control; format: functional
Pseudomonas aeruginosa = experiment: Antibacterial activity against Pseudomonas aeruginosa ATCC 27853 assessed as bacterial growth inhibition at 50 uM incubated for 24 hrs by CLSI protocol based broth microdilution assay relative to control; format: functional
Staphylococcus aureus = experiment: Antibacterial activity against Staphylococcus aureus ATCC 29213 assessed as bacterial growth inhibition at 50 uM incubated for 24 hrs by CLSI protocol based broth microdilution assay relative to control; format: functional
DNA gyrase = DNA gyrase (Escherichia coli, UniProt P0AES4+P0AES6); experiment: Inhibition of Escherichia coli DNA gyrase using biotinylated oligonucleotide as substrate incubated for 30 mins in presence of ATP by fluorescence-based microplate reader assay; format: protein-complex assay
Escherichia coli [5] = experiment: Antibacterial activity against efflux pump d effect ive Escherichia coli JW5503 harbouring tolC mutant assessed as minimum inhibitory concentration required for >=90% inhibition of bacterial growth by CLSI protocol based broth microdilution assay; format: functional
[6] = target: Topoisomerase IV (Staphylococcus aureus) (UniProt P0C1U9+P0C1S7); experiment: Inhibition of Staphylococcus aureus DNA topoisomerase 4 assessed as residual activity at 1 uM using biotinylated oligonucleotide as substrate incubated for 30 mins in presence of ATP by fluorescence-based microplate reader assay relative to control; format: protein-complex assay
[7] = target: DNA gyrase (Staphylococcus aureus) (UniProt P0A0K8+P20831); experiment: Inhibition of Staphylococcus aureus DNA gyrase assessed as residual activity at 1 uM using biotinylated oligonucleotide as substrate incubated for 30 mins in presence of ATP by fluorescence-based microplate reader assay relative to control; format: protein-complex assay
Sequence of DNA gyrase (Staphylococcus aureus) (P0A0K8 2-644 limits assumed): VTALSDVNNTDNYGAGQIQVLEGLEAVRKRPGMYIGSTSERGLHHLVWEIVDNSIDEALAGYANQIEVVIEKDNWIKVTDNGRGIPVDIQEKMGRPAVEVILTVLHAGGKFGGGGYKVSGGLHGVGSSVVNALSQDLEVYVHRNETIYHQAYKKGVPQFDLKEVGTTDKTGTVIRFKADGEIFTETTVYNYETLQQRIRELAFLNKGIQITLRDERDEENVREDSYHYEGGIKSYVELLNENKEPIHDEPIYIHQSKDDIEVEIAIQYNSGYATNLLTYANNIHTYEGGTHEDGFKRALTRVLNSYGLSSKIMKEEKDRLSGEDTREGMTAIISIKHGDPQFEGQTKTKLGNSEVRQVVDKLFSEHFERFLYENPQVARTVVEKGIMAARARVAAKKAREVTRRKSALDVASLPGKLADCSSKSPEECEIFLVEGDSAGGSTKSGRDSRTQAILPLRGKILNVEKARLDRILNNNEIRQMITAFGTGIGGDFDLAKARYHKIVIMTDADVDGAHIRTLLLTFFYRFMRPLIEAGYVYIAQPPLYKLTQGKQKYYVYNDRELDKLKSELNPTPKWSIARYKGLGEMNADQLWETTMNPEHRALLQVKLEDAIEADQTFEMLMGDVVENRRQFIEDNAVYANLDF
Sequence of DNA gyrase (Staphylococcus aureus) (P20831 whole entry partner): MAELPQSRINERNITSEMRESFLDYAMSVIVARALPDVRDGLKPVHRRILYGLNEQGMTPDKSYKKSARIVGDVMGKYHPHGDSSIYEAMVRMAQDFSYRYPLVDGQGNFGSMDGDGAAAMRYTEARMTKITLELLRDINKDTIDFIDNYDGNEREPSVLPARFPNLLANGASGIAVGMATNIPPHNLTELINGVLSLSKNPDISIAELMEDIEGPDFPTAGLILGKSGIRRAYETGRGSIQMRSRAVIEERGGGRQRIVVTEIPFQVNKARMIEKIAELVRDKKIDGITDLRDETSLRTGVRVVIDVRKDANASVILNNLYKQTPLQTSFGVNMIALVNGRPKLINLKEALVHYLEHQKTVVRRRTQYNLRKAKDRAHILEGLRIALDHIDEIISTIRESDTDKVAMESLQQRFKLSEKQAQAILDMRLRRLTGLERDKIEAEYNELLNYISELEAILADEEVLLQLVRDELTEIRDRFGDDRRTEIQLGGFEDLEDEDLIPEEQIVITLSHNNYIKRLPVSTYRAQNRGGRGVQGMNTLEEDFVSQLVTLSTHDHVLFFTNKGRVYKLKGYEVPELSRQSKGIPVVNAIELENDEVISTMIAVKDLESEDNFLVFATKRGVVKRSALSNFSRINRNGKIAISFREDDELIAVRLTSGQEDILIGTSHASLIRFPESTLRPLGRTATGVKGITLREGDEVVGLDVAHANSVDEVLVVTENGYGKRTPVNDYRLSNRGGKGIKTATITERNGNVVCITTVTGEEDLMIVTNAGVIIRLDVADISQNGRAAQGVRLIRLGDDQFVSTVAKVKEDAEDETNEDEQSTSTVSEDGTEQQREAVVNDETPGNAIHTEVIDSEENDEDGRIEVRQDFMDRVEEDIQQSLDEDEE

[8] = Inhibition of Escherichia coli DNA topoisomerase 4 assessed as residual activity at 1 uM using biotinylated oligonucleotide as substrate incubated for 30 mins in presence of ATP by fluorescence-based microplate reader assay relative to control

| Compound | inhibition at 50 µM (Enterococcus faecalis) [%] | inhibition at 50 µM (Escherichia coli [1]) [%] | Activity [2] [%] | inhibition at 50 µM (Klebsiella pneumoniae) [%] | inhibition at 50 µM (Acinetobacter baumannii) [%] | inhibition at 50 µM (Escherichia coli [3]) [%] | inhibition at 50 µM (Enterococcus faecium) [%] | inhibition at 50 µM (Klebsiella aerogenes) [%] | inhibition at 50 µM (Escherichia coli [4]) [%] | inhibition at 50 µM (Pseudomonas aeruginosa) [%] | inhibition at 50 µM (Staphylococcus aureus) [%] | IC50 (DNA gyrase) [nM] | MIC (Escherichia coli [5]) [µM] | Activity [6] [%] | Activity [7] [%] | Activity [8] [%] |
| --- | --- | --- | --- | --- | --- | --- | --- | --- | --- | --- | --- | --- | --- | --- | --- | --- |
| CCOC(=O)C(NC(=O)c1ccc(NC(=O)c2cc(Br)c(Br)[nH]2)cc1)C(=O)OCC | 8 | -8 | 78 | 1 | 3 | 9 | -8 | 1 | 2 | 5 | 12 | – | – | – | – | – |
| Cc1[nH]c(C(=O)Nc2ccc(S(=O)(=O)Nc3nccs3)cc2)c(Cl)c1Cl | 23 | 5 | 100 | 1 | 10 | 13 | 43 | -2 | 17 | 10 | -2 | – | – | – | – | – |
| Cc1[nH]c(C(=O)Nc2ccc(C(=O)NCC(=O)O)cc2O[C@H]2CCN(C(=O)OC(C)(C)C)C2)c(Cl)c1Cl | – | 2 | – | 9 | 1 | 5 | 9 | 6 | -2 | 14 | -1 | 92 | – | – | – | – |
| COC(=O)CNC(=O)c1ccc(NC(=O)c2[nH]c(C)c(Cl)c2Cl)c(OC2CCN(C(=O)OC(C)(C)C)CC2)c1 | – | 7 | 100 | -2 | 15 | 26 | -19 | 5 | 31 | -18 | 8 | – | – | – | – | – |
| COC(=O)CNS(=O)(=O)c1ccc(NC(=O)c2[nH]c(C)c(Cl)c2Cl)cc1 | 8 | -1 | 87 | 1 | 9 | 18 | 34 | -4 | 4 | 5 | 12 | – | – | – | – | – |
| COC(=O)[C@@H](C)NC(=O)c1ccc(NC(=O)c2[nH]c(C)c(Cl)c2Cl)c(OC2CCN(C(=O)OC(C)(C)C)CC2)c1 | – | 40 | 94 | 2 | 36 | 18 | 52 | 22 | 44 | 33 | 30 | – | – | – | – | – |
| Cc1[nH]c(C(=O)Nc2ccc(S(=O)(=O)NCC(=O)O)cc2)c(Cl)c1Cl | 9 | 6 | 87 | 7 | 5 | 7 | 3 | 7 | 1 | -4 | 4 | – | – | – | – | – |
| Cc1[nH]c(C(=O)Nc2ccc3[nH]c(C(=O)O)cc3c2)c(Cl)c1Cl | 54 | 99 | – | -2 | 3 | 2 | 20 | 6 | 2 | -2 | 6 | 98 | 12.5 (≈ 4.4 µg/mL) | – | – | – |
| COC(=O)CNC(=O)c1ccc(NC(=O)c2[nH]c(C)c(Cl)c2Cl)c(O[C@H]2CCN(C(=O)OC(C)(C)C)C2)c1 | – | -4 | 93 | 8 | 9 | 10 | 23 | 7 | 30 | 12 | 12 | – | – | – | – | – |
| CCOC(=O)c1cc2cc(NC(=O)c3[nH]c(C)c(Cl)c3Cl)ccc2[nH]1 | – | – | 100 | – | – | – | – | – | – | – | – | – | – | – | – | – |
| COC(=O)[C@@H](C)NC(=O)c1ccc(NC(=O)c2[nH]c(C)c(Cl)c2Cl)c(OC(C)C)c1 | -41 | 11 | 87 | 16 | 8 | 12 | -15 | 12 | 27 | 5 | 29 | – | – | – | – | – |
| N#CCNC(=O)c1ccc(NC(=O)c2cc(Br)c(Br)[nH]2)cc1 | 7 | -9 | – | 5 | 2 | 2 | 2 | 7 | -5 | 11 | -5 | 960 | – | – | – | – |
| O=C(O)CNC(=O)c1ccc(NC(=O)c2cc(Br)c(Br)[nH]2)c(OC2CCNCC2)c1 | – | -17 | – | 4 | 1 | -9 | 2 | 3 | 5 | 2 | 3 | 20 | – | 100 | 67 | 100 |
| COC(=O)CNC(=O)c1ccc(NC(=O)c2cc(Br)c(Br)[nH]2)c(OC2CCN(C(=O)OC(C)(C)C)CC2)c1 | – | -4 | 100 | -12 | -4 | -8 | -75 | -9 | 1 | -1 | -17 | – | – | – | – | – |
| CCOC(=O)C(NC(=O)c1ccc(NC(=O)c2[nH]c(C)c(Cl)c2Cl)cc1)C(=O)OCC | 14 | 8 | – | 18 | 9 | 13 | 11 | 11 | 8 | -6 | 32 | 7700 | – | – | – | – |
| Cc1[nH]c(C(=O)Nc2ccc(C(=O)N[C@H](C)C(=O)O)cc2OC2CCN(C(=O)OC(C)(C)C)CC2)c(Cl)c1Cl | – | -8 | – | -13 | 15 | -7 | 59 | -5 | 10 | -10 | -22 | 71 | – | 79 | 68 | 99 |
| Cc1[nH]c(C(=O)Nc2ccc(C(=O)NS(C)(=O)=O)cc2)c(Cl)c1Cl | 16 | 73 | – | -2 | 6 | 15 | -3 | -8 | 4 | 3 | 5 | 160 | – | 81 | 55 | 98 |
| CC(C)(C)OC(=O)N1CCC(Oc2cc(C(=O)NCC(=O)O)ccc2NC(=O)c2cc(Br)c(Br)[nH]2)CC1 | – | -4 | – | 9 | -4 | -14 | -76 | -14 | -6 | 6 | -18 | 630 | – | – | – | – |
| Cc1[nH]c(C(=O)Nc2ccc(S(N)(=O)=O)cc2)c(Cl)c1Cl | 6 | 2 | 82 | 4 | 6 | 13 | 54 | 1 | 4 | -4 | 12 | – | – | – | – | – |
